{
  "source": "paper PMC8070144",
  "about": "“The YfkO Nitroreductase from Bacillus Licheniformis on Gold-Coated Superparamagnetic Nanoparticles: Towards a Novel Directed Enzyme Prodrug Therapy Approach” (Pharmaceutics, 2021)",
  "key": {"NfnB-cys [1]": {"biological_target": "T1, NfnB-cys (Escherichia coli, UniProt P38489)", "T1 construct": "gene nfsB; recombinant, pET28a(+) in E. coli Rosetta BL21(DE3) (printed B21 DE3); N-terminal Cys tag and His tag kept; Ni IMAC, FMN-saturated, PD10 desalted", "T1 sequence (P38489 whole entry)": "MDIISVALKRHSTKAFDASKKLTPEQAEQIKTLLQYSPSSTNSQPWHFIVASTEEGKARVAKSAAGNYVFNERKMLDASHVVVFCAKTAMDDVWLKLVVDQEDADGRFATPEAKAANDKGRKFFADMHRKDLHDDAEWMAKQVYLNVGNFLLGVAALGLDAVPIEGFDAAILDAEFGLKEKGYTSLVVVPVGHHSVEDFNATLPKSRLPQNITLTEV", "test": "UV-Vis spectra with time, NADH oxidation at […] nm", "format": "biochemical", "settings": "free enzyme; CB1954 100 µM; 50 mM phosphate pH 7.2; methods print NADPH, results print NADH"}, "NfnB-cys [2]": {"biological_target": "T1, NfnB-cys", "test": "UV-Vis spectra with time, product at […] nm", "format": "biochemical", "settings": "free enzyme; CB1954 100 µM; 50 mM phosphate pH 7.2; cofactor NADH in results (NADPH 300 µM in methods)"}, "YfkO-cys": {"test_system": "T2, YfkO-cys", "T2 construct": "recombinant, pET28a(+) in E. coli Rosetta BL21(DE3) (printed B21 DE3); N-terminal Cys tag and His tag kept; Ni IMAC, FMN-saturated, PD10 desalted", "test": "absorbance at […] nm, hydroxylamine product formation, plate reader", "format": "biochemical, Bacillus licheniformis", "settings": "free enzyme; NADH 400 µM; 50 mM phosphate pH 7.2; 37 °C; CB1954 0.1-10 mM"}},
  "data": [
    {"smiles": "NC(=O)C1=CN([C@@H]2O[C@H](COP(=O)(O)OP(=O)(O)OC[C@H]3O[C@@H](n4cnc5c(N)ncnc54)[C@H](O)[C@@H]3O)[C@@H](O)[C@H]2O)C=CC1", "note": "[NADH]", "values": [
      {"measurement": "UV-Vis spectra with time, NADH oxidation at 340 nm", "setting": "NfnB-cys [1]", "value": "scans obtained for NfnB-cys, free and immobilised, were almost identical to these"}
    ]},
    {"smiles": "NC(=O)c1cc(N2CC2)c([N+](=O)[O-])cc1[N+](=O)[O-]", "note": "[compound 1, 5-(aziridin-1-yl)-2,4-dinitrobenzamide]", "values": [
      {"measurement": "UV-Vis spectra with time, product at 420 nm", "setting": "NfnB-cys [2]", "value": "scans obtained for NfnB-cys, free and immobilised, were almost identical to these"},
      {"measurement": "Km", "setting": "YfkO-cys", "value": "830 ± 250", "unit": "µM"}
    ]}
  ]
}
